Earlier results as cited in patent publication US7612104B2, “Bicyclic aryl-sulfonic acid [1,3,4]-thiadiazol-2-yl-amides, processes for their preparation, pharmaceutical compositions and methods for their use” (Sanofi-Aventis, priority 2005, dated 2009).
Like-named read-outs stand apart in the source and are kept apart here.

Key:
PPARdelta [1] = conditions: diabetic animal model; cited from earlier work
PPARdelta [2] = biological target: T1, PPARdelta (Macaca mulatta, UniProt I0FFS1); conditions: obese, insulin resistant rhesus monkeys; cited from earlier work
T1 construct: host or cells: rhesus monkeys in vivo
T1 sequence (I0FFS1 1-441): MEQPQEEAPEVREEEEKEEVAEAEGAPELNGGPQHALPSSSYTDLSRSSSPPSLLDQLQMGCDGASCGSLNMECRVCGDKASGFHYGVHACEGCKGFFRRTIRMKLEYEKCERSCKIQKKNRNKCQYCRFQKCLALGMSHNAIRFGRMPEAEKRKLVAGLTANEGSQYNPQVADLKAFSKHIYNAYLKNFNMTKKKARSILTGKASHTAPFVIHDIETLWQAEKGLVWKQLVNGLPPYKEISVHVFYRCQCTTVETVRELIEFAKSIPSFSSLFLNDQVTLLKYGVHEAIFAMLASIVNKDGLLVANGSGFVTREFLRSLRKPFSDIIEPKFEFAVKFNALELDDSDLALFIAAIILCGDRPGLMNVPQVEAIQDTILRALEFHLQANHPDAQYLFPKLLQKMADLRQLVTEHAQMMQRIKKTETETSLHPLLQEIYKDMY

PPARdelta/PPARalpha [3] = conditions: rhesus and cynomolgus monkeys; cited from earlier work
PPARdelta/PPARalpha [4] = conditions: two weeks clinical trials in healthy volunteers; cited from earlier work

SMILES: CCCc1c(OCCCOc2ccc(OCC(=O)O)cc2)ccc(C(C)=O)c1O [Example L-165041]
- plasma cholesterol (PPARdelta [1]): raises plasma cholesterol

SMILES: Cc1cc(SCc2sc(-c3ccc(C(F)(F)F)cc3)nc2C)ccc1OCC(=O)O [GW501516]
- HDL-cholesterol (PPARdelta [2]): raises
- insulin levels (PPARdelta [2]): decreases
- plasma LDL-cholesterol (PPARdelta [2]): decreases
- triglycerides (PPARdelta [2]): decreases

SMILES: CCCc1c(OCCCSc2nnc(SCC(=O)O)s2)ccc(C(C)=O)c1O [YM-16638]
- plasma lipids (PPARdelta/PPARalpha [3]): significantly lowers
- plasma lipids (PPARdelta/PPARalpha [4]): acts in a similar manner
